Values joined by “and” are separate entries in the source; they are usually repeats but may differ in a detail not shown here. Identical values can stand only once. Like-named read-outs stand apart in the source and are kept apart here.
Columns and labels:
[1] = target: T1, Can f 6 (Canis lupus familiaris, UniProt H2B3G5); experiment: Fluorochrome binding to Can f 6 (emission spectra and titration); design: species or system dog; conditions: for Increase of fluorescence intensity upon binding: 5 μM Can f 6 with 5 μM fluorochrome
T1 construct: polyhistidine tag (C); made in house; host or cells: E. coli Rosetta-gami 2
T1 sequence (H2B3G5 16-190): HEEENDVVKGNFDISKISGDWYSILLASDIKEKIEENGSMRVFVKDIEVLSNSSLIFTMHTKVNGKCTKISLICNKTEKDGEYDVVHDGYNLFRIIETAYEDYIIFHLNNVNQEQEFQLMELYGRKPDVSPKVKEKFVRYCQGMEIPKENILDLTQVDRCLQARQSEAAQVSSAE
Method: (§1) Stock solutions were prepared at a concentration of 10 mM in 100% ethanol for the fluorochromes 1-aminoanthracene (1-AMA), 8-anilino-1-naphthalensulfonic acid (1,8-ANS) and for all ligands, and in 100% methanol for n-phenyl-1-naphthylamine (1-NPN), respectively. Iron catecholate ligands (siderophores) were prepared as previously described ([46]). Fluorochrome-protein complexes were analyzed at an equimolar concentration of 5 μM in PBS with 5% ethanol in a volume of 100 μL per well in black 96-well non-binding microplates (Greiner Bio-One GmbH, Frickenhausen, Germany). Solutions containing only protein or the respective fluorescent probe in PBS with 5% ethanol served as controls. Fluorochrome-protein complexes were incubated with orbital shaking for 10 min at 500 rpm at room temperature (RT) before measurement using the fluorescence reader TECAN Infinite 200 Pro (Tecan Trading AG, Switzerland). Excitation wavelengths were fixed at 380 nm for 1-AMA and 1,8-ANS, and 337 nm for 1-NPN. Fluorescence emission spectra were recorded in 5 nm steps between 420 and 560 nm for 1-AMA and 1,8-ANS and between 380 and 500 nm for 1-NPN. The establishment of fluorescent quenching assay parameters for each allergen is explained in the results Section Fluorescence-quenching assay set up. Binding affinities were analyzed by non-linear regression in GraphPad Prism Version 9.3.1 (GraphPad Software, LLC). For the ligand competition assays, ligands were added to fluorochrome-allergen complexes with a final buffer composition of 5% ethanol in PBS in a volume of 100 μL and incubated for 30 min at 500 rpm at RT and further equilibrated for another 30 min without shaking before fluorescence measurement.
(§2) We established four specific parameters for each allergen to set up a fluorescence quenching assay for screening a large array of potential ligands: (i) a compatible fluorochrome, (ii) the optimal emission wavelength to analyze the fluorescence intensities of the fluorochrome-allergen complex, (iii) the binding affinities of the fluorochrome-allergen complex (Kd values) and (iv) optimal fluorochrome concentrations (EC50 values).
(§3) For each allergen, we identified a suitable fluorescence probe by adding equimolar concentrations of either 1-AMA or 1,8-ANS to the recombinant proteins. […] 1-AMA was chosen for the guinea pig lipocalin Cav p 1 isoallergens, rabbit lipocalin Ory c 2, and rabbit secretoglobin Ory c 3. Fluorescence intensities increased 20–60-fold upon binding. While the emission maxima shifted from 565 to 485 nm for lipocalin fluorochrome-allergen pairs, the blue shift was less pronounced for the Ory c 3 secretoglobin-1-AMA complex to 505 nm (Figure 4B). […] Respective Kd were calculated after background subtraction (Figure 4B). As ethanol gave a high background with 1-NPN, these experiments were carried out with methanol to reduce the signal-to-noise-ratio.
(§4) We evaluated the binding affinities of the fluorochromes to the allergens by dose-dependent titration curves. Increasing fluorochrome concentrations were added to a fixed protein concentration of 5 μM until saturation (Figure 5). Fluorescence intensities were recorded at specific emission maxima for each fluorochrome-allergen complex, determined using the emission spectra shown in Figure 4. We analyzed the specific binding of fluorochrome-allergen complexes by non-linear regression and calculated equilibrium dissociation constants (Kd) and EC50 values (Table 2). EC50 values are equal to fluorochome concentrations in which half of the allergen binding sites are saturated and these concentrations were used in subsequent ligand competition assays. We chose a one-site specific binding model for all allergens, except for human LCN1, where multiple binding site analysis emerged as the model of best fit and two Kd values were calculated. Evidence for internal and external binding sites for 1,8-ANS and LCN1 were already reported ([58]).

[2] = target: T2, human LCN1 (Homo sapiens, UniProt P31025); experiment: Fluorochrome binding to LCN1 (emission spectra and titration); conditions: for Kd: multiple binding site analysis
T2 construct: made in house; host or cells: E. coli Rosetta-gami 2(DE3)
T2 sequence (P31025 19-176): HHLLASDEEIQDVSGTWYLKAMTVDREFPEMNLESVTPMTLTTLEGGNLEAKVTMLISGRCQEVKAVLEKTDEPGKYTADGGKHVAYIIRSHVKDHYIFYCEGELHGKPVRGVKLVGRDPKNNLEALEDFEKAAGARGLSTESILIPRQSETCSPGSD
Method: as §1, §2
as §3, with “As ethanol gave a high background with 1-NPN, these experiments were carried out with methanol to reduce the signal-to-noise-ratio.” left out
We evaluated the binding affinities of the fluorochromes to the allergens by dose-dependent titration curves. […] Fluorescence intensities were recorded at specific emission maxima for each fluorochrome-allergen complex, determined using the emission spectra shown in Figure 4. We analyzed the specific binding of fluorochrome-allergen complexes by non-linear regression and calculated equilibrium dissociation constants (Kd) and EC50 values (Table 2). […] We chose a one-site specific binding model for all allergens, except for human LCN1, where multiple binding site analysis emerged as the model of best fit and two Kd values were calculated. […]

[3] = target: T3, Fel d 1 (Felis catus, UniProt P30438+P30440); experiment: Fluorochrome binding to Fel d 1 (emission spectra and titration); design: species or system cat; conditions: for Increase of fluorescence intensity upon binding: 5 μM Fel d 1 with 5 μM fluorochrome
T3 construct: polyhistidine tag (C); made in house; host or cells: E. coli Rosetta-gami 2
T3 sequence (P30438+P30440 with tags, fused parts or gaps): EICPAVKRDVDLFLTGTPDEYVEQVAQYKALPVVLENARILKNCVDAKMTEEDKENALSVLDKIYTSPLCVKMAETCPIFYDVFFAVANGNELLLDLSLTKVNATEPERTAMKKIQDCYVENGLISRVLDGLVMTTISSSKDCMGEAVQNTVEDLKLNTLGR
Method: as §1, §2, §3, §4

[4] = target: T4, Fel d 4 (Felis catus, UniProt Q5VFH6); experiment: Fluorochrome binding to Fel d 4 (emission spectra and titration); design: species or system cat; conditions: for Increase of fluorescence intensity upon binding: 5 μM Fel d 4 with 5 μM fluorochrome
T4 construct: polyhistidine tag (C); made in house; host or cells: E. coli Rosetta-gami 2
T4 sequence (Q5VFH6 16-186): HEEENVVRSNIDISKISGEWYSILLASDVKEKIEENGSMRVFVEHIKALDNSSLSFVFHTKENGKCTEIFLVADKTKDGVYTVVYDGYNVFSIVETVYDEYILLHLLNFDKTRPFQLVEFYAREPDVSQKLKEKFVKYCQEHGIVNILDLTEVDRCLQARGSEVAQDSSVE
Method: as §1, §2, §3, §4

[5] = target: T5, Can f 1 (Canis lupus familiaris, UniProt O18873); experiment: Fluorochrome binding to Can f 1 (emission spectra and titration); design: species or system dog
T5 construct: made in house; host or cells: E. coli Rosetta-gami 2(DE3)
T5 sequence (O18873 19-174): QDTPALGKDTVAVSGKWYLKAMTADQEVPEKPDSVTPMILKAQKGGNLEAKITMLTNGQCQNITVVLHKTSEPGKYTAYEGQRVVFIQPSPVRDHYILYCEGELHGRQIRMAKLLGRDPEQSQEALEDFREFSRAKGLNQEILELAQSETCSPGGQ
Method: as §1, with “measurement. […]” for “measurement.”
(§5) For each allergen, we identified a suitable fluorescence probe by adding equimolar concentrations of either 1-AMA or 1,8-ANS to the recombinant proteins. […] Fluorescence intensities increased 20–60-fold upon binding. […] Respective Kd were calculated after background subtraction (Figure 4B). […]
(§6) We evaluated the binding affinities of the fluorochromes to the allergens by dose-dependent titration curves. […]

[6] = target: Ory c 2; experiment: Fluorochrome binding to Ory c 2 (emission spectra and titration); design: species or system rabbit
Method: as §1, with “measurement. […]” for “measurement.”
as §5, §6

[7] = target: Cav p 1.0201 (Cavia porcellus, UniProt A0A484HRI4); experiment: Fluorochrome binding to Cav p 1.0201 (emission spectra and titration); design: species or system guinea pig; conditions: 5 μM Cav p 1.0201
Cav p 1.0201, sequence (A0A484HRI4 entry or part of it): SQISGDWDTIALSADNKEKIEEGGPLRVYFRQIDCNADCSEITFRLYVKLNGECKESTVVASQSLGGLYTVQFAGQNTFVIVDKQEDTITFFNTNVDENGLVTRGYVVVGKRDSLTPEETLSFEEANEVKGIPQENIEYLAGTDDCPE
Method: as §1, with “For the ligand competition assays, ligands were added to fluorochrome-allergen complexes with a final buffer composition of 5% ethanol in PBS in a volume of 100 μL and incubated for 30 min at 500 rpm at RT and further equilibrated for another 30 min without shaking before fluorescence measurement.” left out

[8] = target: Ory c 3 (Oryctolagus cuniculus, UniProt Q9GK63+Q9GK67); experiment: Fluorochrome binding to Ory c 3 (emission spectra and titration); design: species or system rabbit; conditions: 5 μM Ory c 3
Ory c 3, sequence (Q9GK67 entry or part of it): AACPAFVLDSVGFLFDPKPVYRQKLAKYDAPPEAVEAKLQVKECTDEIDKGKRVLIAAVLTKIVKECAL
Ory c 3, sequence (Q9GK63 entry or part of it): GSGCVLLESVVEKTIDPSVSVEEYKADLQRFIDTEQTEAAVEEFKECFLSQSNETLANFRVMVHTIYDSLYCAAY
Method: as §1, with “For the ligand competition assays, ligands were added to fluorochrome-allergen complexes with a final buffer composition of 5% ethanol in PBS in a volume of 100 μL and incubated for 30 min at 500 rpm at RT and further equilibrated for another 30 min without shaking before fluorescence measurement.” left out

[9] = target: Cav p 1.0101 (Cavia porcellus, UniProt A0A484HM70, S19A); experiment: Fluorochrome binding to Cav p 1.0101 (emission spectra and titration); design: species or system guinea pig; conditions: 5 μM Cav p 1.0101
Cav p 1.0101, sequence (A0A484HM70 entry or part of it S19A): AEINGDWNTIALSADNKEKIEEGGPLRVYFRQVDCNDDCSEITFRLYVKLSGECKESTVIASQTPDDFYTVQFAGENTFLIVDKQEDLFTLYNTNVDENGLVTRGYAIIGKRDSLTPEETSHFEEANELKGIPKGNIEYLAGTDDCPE
Method: as §1, with “For the ligand competition assays, ligands were added to fluorochrome-allergen complexes with a final buffer composition of 5% ethanol in PBS in a volume of 100 μL and incubated for 30 min at 500 rpm at RT and further equilibrated for another 30 min without shaking before fluorescence measurement.” left out

[10] = Thermal stability by circular dichroism spectroscopy with temperature ramping; type: physicochemical; conditions: temperature ramping 20–95°C, 10 μmol/L protein
Method: Secondary protein structure formation and thermal stability of the recombinant proteins were determined by circular dichroism (CD) spectroscopy. Recombinant proteins were diluted with ultrapure water to a concentration of 10 μmol/L in a volume of 300 μL to measure their CD spectra using the Chirascan CD spectrometer (Applied Photophysics). Far-ultraviolet CD spectra were recorded at 180–260 nm (0.8 nm bandwidth, 0.4 s interval, 3 repeats) in a cuvette of 0.1 cm path length. Thermal sensitivity was assessed by ramping temperatures (20–95°C) with an internal temperature probe and continuous CD-signal measurements (ramping rate 0.82°C per minute, no repeats). After 10 min at 95°C another CD spectrum was recorded with 3 repeats, then the temperature was decreased back to 20°C for a final scan with 3 repeats to analyze the refolding capacity. The read-out was converted with respective protein details, such as molecular weight and number of amino acids, into degrees^*cm2^*dmol−1. Chirascan Global 3 Analysis Software (Applied Photophysics) and DichroWeb online server ([36]) with solutions from the CDSSTR method and reference data set 7 ([37]) were used to analyze and interpret CD spectra, measured as a function of temperature.

[11] = one-site specific binding, read-out: Fluorochrome dissociation constant Kd
[12] = read-out: EC50 fluorochrome concentration

O=S(=O)(O)c1cccc2cccc(Nc3ccccc3)c12 [1,8-ANS, 8-anilino-1-naphthalensulfonic acid]
Increase of fluorescence intensity upon binding [1]: neither reacted | Kd ([2]; 5 μM LCN1, first binding site, read-out: Fluorochrome dissociation constant Kd): 5 µM | Kd ([2]; 5 μM LCN1, second binding site, read-out: Fluorochrome dissociation constant Kd, second binding site): 64.7 µM | EC50 ([2]; 5 μM LCN1, read-out: EC50 fluorochrome concentration): 7.1 µM | Increase of fluorescence intensity upon binding ([2]; 5 μM LCN1 with 5 μM fluorochrome): > 100 fold | Kd at the second binding site relative to the first (higher Kd) ([2]; LCN1): 13 fold | Kd ([3]; 5 μM Fel d 1, one-site specific binding, read-out: Fluorochrome dissociation constant Kd): 149 µM | EC50 ([3]; 5 μM Fel d 1, read-out: EC50 fluorochrome concentration): 99.8 µM | Increase of fluorescence intensity upon binding [3]: 8 fold | Increase of fluorescence intensity upon binding [4]: neither reacted | EC50 ([5]; 5 μM Can f 1, half of the allergen binding sites saturated, read-out: EC50 fluorochrome concentration): 6.4 µM | Kd ([5]; 5 μM Can f 1, one-site specific binding, read-out: Fluorochrome dissociation constant Kd): 6.8 µM | Increase of fluorescence intensity upon binding ([5]; 5 μM Can f 1 with 5 μM fluorochrome): > 100 fold

Nc1cccc2cc3ccccc3cc12 [1-AMA, 1-aminoanthracene]
Increase of fluorescence intensity upon binding [1]: neither reacted | Increase of fluorescence intensity upon binding [3]: negligible interactions | Kd ([6]; 5 μM Ory c 2, one-site specific binding, read-out: Fluorochrome dissociation constant Kd): 5.7 µM | EC50 ([6]; 5 μM Ory c 2, read-out: EC50 fluorochrome concentration): 4.2 µM | Increase of fluorescence intensity upon binding ([6]; 5 μM Ory c 2 with 5 μM fluorochrome, range stated for four allergens together): 20–60 fold | Kd [7, 11]: 13.9 µM | EC50 [7, 12]: 9.2 µM | Kd [8, 11]: 9 µM | EC50 [8, 12]: 6.9 µM | Increase of fluorescence intensity upon binding [4]: neither reacted | Kd [9, 11]: 6.57 µM and 6.6 µM | EC50 [9, 12]: 4.95 µM and 5 µM

c1ccc(Nc2cccc3ccccc23)cc1 [1-NPN, n-phenyl-1-naphthylamine]
Kd ([1]; 5 μM Can f 6, Figure 5C, read-out: Kd, one-site fit model of total and non-specific binding): 59.9 µM | Kd ([1]; 5 μM Can f 6, one-site specific binding, read-out: Fluorochrome dissociation constant Kd): 34.9 µM | EC50 ([1]; 5 μM Can f 6, read-out: EC50 fluorochrome concentration): 20.7 µM | Increase of fluorescence intensity upon binding [1]: 2–3 fold | EC50 [3]: 21.1 µM | Kd [3]: 35.5 µM | Increase of fluorescence intensity upon binding [3]: 2–3 fold | Kd ([4]; 5 μM Fel d 4, one-site specific binding, read-out: Fluorochrome dissociation constant Kd): 81.7 µM | EC50 ([4]; 5 μM Fel d 4, read-out: EC50 fluorochrome concentration): 28 µM | Increase of fluorescence intensity upon binding [4]: 2–3 fold

CN(C)c1cccc2c(S(=O)(=O)NCCCCCCCCCCC(=O)O)cccc12 [DAUDA, 11-(Dansylamino)undecanoic acid]
Increase of fluorescence intensity upon binding [1]: neither reacted | Increase of fluorescence intensity upon binding [4]: neither reacted

LCN1: recombinant human lipocalin-1 (tear lipocalin, von Ebner's gland protein), non-allergenic control, produced in E. coli
Melting point [10]: 74.8 ± 0.2 C°

Source: PMC9385959, “Mammalian derived lipocalin and secretoglobin respiratory allergens strongly bind ligands with potentially immune modulating properties” (Frontiers in Allergy, 2022)
